From US9877980B2, “Method and composition for treatment or prevention of type 2 diabetes and hyperlipidemia” (Chun-Ching Shih, priority 2016, dated 2018)

Key:
Akt = assay: Western blotting of phospho-Akt/total Akt in skeletal muscle and liver; assay type: in vivo; conditions: HFD mice, 4 weeks, vs HF group
Protocol: (§1) The following experiment was performed and approved by the guidelines of the Institutional Animal Care and Use Committee of Central Taiwan University of Science and Technology. The 4-week old male C57BL/6J mice (total amount n=63) were purchased from the National Laboratory Animal Breeding and Research Center (Taipei, Taiwan). After acclimatization for one week, all of the mice were divided randomly into the control (CON) group and the high-fat diet (HFD) group. For the following 12 weeks, the CON group (n=9) was kept on a low-fat diet (Diet 12450B, Research Diets, Inc., New Brunswick, N.J., USA), while the HFD group (n=54) was exposed to a high-fat diet (Diet 12451, Research Diets, New Brunswick, N.J., USA). The low-fat diet was composed of protein 20%, carbohydrate 70% and fat 10%, whereas the high-fat diet was composed of protein 20%, carbohydrate 35%, and fat 45% (of total energy, % kcal). After HFD exposure for 8 weeks, the HFD group was further randomly subdivided into 6 groups (n=9 per group) to receive different treatments by oral gavage once daily for four weeks and on HFD. […] The HF+B1, HF+B2, and […] are collectively termed BB-treated HFD groups in the following examples. The CON mice were administered vehicle. After dosing for 4 weeks, the mice were given no food at night and sacrificed after 12 h of fasting on the next day. All of the individual tissues were collected and weighed, and portions were instantly frozen using liquid nitrogen and kept at −80° C. for subsequent target gene analysis. Blood samples (0.8 mL) were collected for analysis of blood parameters.
Protein extractions and immunoblots for the determination of phospho-AMPK (Thr^172) and phospho-Akt (Ser^473) proteins in skeletal muscle and liver tissue of mice (n=9) were carried out. About 0.1 g of liver tissue and skeletal muscle was used for the homogenate samples. Samples were powdered under liquid nitrogen and homogenized for 20 seconds in 500 μL buffer containing 20 mM Tris-HCL1 (pH 7.4 at 4° C.), 2% SDS, 5 mM EDTA, 5 mM EGTA, 1 mM DTT, 100 mM NaF, 2 mM sodium vanadate, 0.5 mM phenylmethylsulfonyl fluoride, 10 μg/mL leupeptin, and […] pepstatin. The protein concentration in supernatant was determined with a BCA protein assay kit (Thermo Scientific, Rockford, Ill., USA). 20 μg of proteins were separated by electrophoresis on a polyacrylamide gel 12% (SDS-PAGE) and transferred to a nitrocellulose membrane. The membranes were blocked with 5% slim milk in Tris-buffered saline (TBS)(Amersham BioSciences, Uppsala, Sweden) containing 0.05% Tween-20 (Bio Rad, CA, USA) and incubated overnight at 4° C. with anti-phospho-AMPK (Abcam Inc., Cambridge, Mass., USA) and anti-phospho-Akt (Cell signaling Technology, Inc., Danvers, Mass., USA) rabbit polyclonal antibodies at 1:200 dilution. Subsequently, the membranes were washed three times with TBS containing 0.05% Tween-20 and incubated with secondary antibody anti-rabbit (1:1000) (Jackson ImmunoResearch Laboratories, Inc., PA, USA) for 1 hour. Immunoreactive bands were detected with ECL reagent kit (GE Healthcare BioSciences, Buckinghamshire, UK). The intensity of blotting was analyzed using Alpha Easy FC software (Alpha Innotech Corporation, Randburg, South Africa). Structural proteins GAPDH (Santa Cruz Biotechnology, CA, USA) in the samples were used as the loading control.

11β-HSD1 = assay: Semi-quantitative RT-PCR of liver mRNA: 11β-HSD1; assay type: in vivo; conditions: HFD mice, 4 weeks, vs HF group
Protocol: as §1, with “For the following 12 weeks, the CON group (n=9) was kept on a low-fat diet (Diet 12450B, Research Diets, Inc., New Brunswick, N.J., USA), while the HFD group (n=54) was exposed to a high-fat diet (Diet 12451, Research Diets, New Brunswick, N.J., USA). The low-fat diet was composed of protein 20%, carbohydrate 70% and fat 10%, whereas the high-fat diet was composed of protein 20%, carbohydrate 35%, and fat 45% (of total energy, % kcal).” left out
Total RNA from liver tissue of mice was isolated with a Trizol Reagent (Molecular Research Center, Inc., Cincinnati, Ohio, USA) according to the manufacturer's instructions. The integrity of the extracted total RNA was examined by 2% agarose gel electrophoresis, and the RNA concentration was determined by the ultraviolet (UV) light absorbency at 260 nm and 280 nm (Spectrophotometer U-2800A, Hitachi). The quality of the RNA was confirmed by ethidium bromide staining of 18S and 28S ribosomal RNA after electrophoresis on 2% agarose gel containing 6% formaldehyde.
Levels of mRNA of genes of interest were quantified by semi-quantitative reverse transcription polymerase chain reaction (RT-PCR). […] PCR products were analyzed by 2% agarose gels and stained with ethidium bromide.

OCC1O[C@@H](O[C@@H]2Cc3c(O)cc(O)cc3O[C@@H]2c2ccc(O)c(O)c2)C(O)C(O)[C@@H]1O (single isomer, unassigned; (-)) [compound of formula I, (−)-epicatechin-3-O-β-D-allopyranoside]
expression level of phospho-Akt/total Akt (Akt; liver, 10 mg/kg/day oral gavage): increased | expression level of phospho-Akt/total Akt (Akt; liver, 20 mg/kg/day oral gavage): increased | expression level of phospho-Akt/total Akt (Akt; liver, 40 mg/kg/day oral gavage): increased | expression level of phospho-Akt/total Akt (Akt; skeletal muscle, 10 mg/kg/day oral gavage): increased | expression level of phospho-Akt/total Akt (Akt; skeletal muscle, 20 mg/kg/day oral gavage): increased | expression level of phospho-Akt/total Akt (Akt; skeletal muscle, 40 mg/kg/day oral gavage): increased | liver mRNA level of 11β-HSD1 (11β-HSD1; 10 mg/kg/day oral gavage): significantly reduced | liver mRNA level of 11β-HSD1 (11β-HSD1; 20 mg/kg/day oral gavage): significantly reduced | liver mRNA level of 11β-HSD1 (11β-HSD1; 40 mg/kg/day oral gavage): significantly reduced
